In ChEMBL document CHEMBL4376803, “Recent Advances in the Exploration of Therapeutic Analogues of Gramicidin S, an Old but Still Potent Antimicrobial Peptide” (J Med Chem, 2019):
In brackets after ≈: the same amount, converted by molar mass. One block for each compound: values may come before it.

Columns and labels:
[1] = Haemolytic activity in human erythrocytes; format: ADME, cell-based, Erythrocyte; conditions: human erythrocytes
Staphylococcus aureus [2] = test: Antibacterial activity against Staphylococcus aureus ATCC 49975 after 16 to 20 hrs by broth microdilution method; format: functional
Enterococcus faecalis = test: Antibacterial activity against Enterococcus faecalis ATCC 29212 after 24 hrs; format: functional; conditions: ATCC 29212, 24 h
Bacillus cereus = test: Antibacterial activity against Bacillus cereus ATCC 11778 incubated for 24 hrs; format: functional; conditions: ATCC 11778, 24 h
Staphylococcus aureus [3] = test: Antibacterial activity against Staphylococcus aureus ATCC 29213 after 24 hrs; format: functional; conditions: ATCC 29213, 24 h
Pseudomonas aeruginosa = test: Antibacterial activity against Pseudomonas aeruginosa ATCC 27853 incubated for 24 hrs; format: functional; conditions: ATCC 27853, 24 h
Escherichia coli = test: Antibacterial activity against Escherichia coli ATCC 25922 after 24 hrs; format: functional; conditions: ATCC 25922, 24 h
[4] = tested on: Staphylococcus epidermidis; test: Antibacterial activity against Staphylococcus epidermidis ATCC 12228 incubated for 24 hrs; format: functional; conditions: ATCC 12228, 24 h
[5] = Haemolytic activity in human RBC after 4 hrs; format: ADME, cell-based, Erythrocyte; conditions: human red blood cells

Structure (SMILES): CC(C)C[C@@H]1NC(=O)[C@H](CCCN)NC(=O)[C@H](C(C)C)NC(=O)[C@@H]2CCCN2C(=O)[C@@H](Cc2ccccc2)NC(=O)[C@H](CC(C)C)NC(=O)[C@H](CCCN)NC(=O)[C@H](C(C)C)NC(=O)C2=CC3=C4CCCC4=C4C=C(SC4(C)C3(C)S2)C(=O)NNC1=O (stereo partly specified)
HC50 [1]: 58 µg/mL

Structure (SMILES): CC(C)C[C@@H]1NC(=O)[C@H](CCCN)NC(=O)[C@H](C(C)C)NC(=O)[C@@H]2CCCN2C(=O)[C@@H](Cc2ccccc2)NC(=O)[C@H](CC(C)C)NC(=O)[C@H](CCCN)NC(=O)[C@H](C(C)C)NC(=O)[C@H]2CC[C@H](OCc3ccccc3)[C@@H](CNC1=O)O2
MIC (Enterococcus faecalis): 16 µg/mL (≈ 14 µM)
MIC (Bacillus cereus): 8 µg/mL (≈ 6.99 µM)
MIC (Staphylococcus aureus [3]): 16 µg/mL (≈ 14 µM)
MIC (Pseudomonas aeruginosa): > 64 µg/mL
MIC (Escherichia coli): 32 µg/mL (≈ 28 µM)
MIC [4]: 8 µg/mL (≈ 6.99 µM)

Structure (SMILES): NCCC[C@@H]1NC(=O)[C@H](C23CC4CC(CC(C4)C2)C3)NC(=O)[C@@H]2CCCN2C(=O)[C@@H](Cc2ccccc2)NC(=O)[C@H](C23CC4CC(CC(C4)C2)C3)NC(=O)[C@H](CCCN)NC(=O)[C@H](C23CC4CC(CC(C4)C2)C3)NC(=O)[C@@H]2CCCN2C(=O)[C@@H](Cc2ccccc2)NC(=O)[C@H](C23CC4CC(CC(C4)C2)C3)NC1=O
HC50 at 4 h [5]: 7.55 µg/mL

Structure (SMILES): NCCC[C@@H]1NC(=O)[C@H](C23CC4CC(CC(C4)C2)C3)NC(=O)[C@H](CCCN)NC(=O)[C@@H]2CCCN2C(=O)[C@@H](Cc2ccccc2)NC(=O)[C@H](CCCN)NC(=O)[C@H](C23CC4CC(CC(C4)C2)C3)NC(=O)[C@H](CCCN)NC(=O)[C@@H]2CCCN2C(=O)[C@@H](Cc2ccccc2)NC1=O
HC50 at 4 h [5]: 107 µg/mL

Next, values leading:

MIC (Staphylococcus aureus [2]): 64 µg/mL (≈ 62.7 µM)
Structure (SMILES): CC(C)C[C@@H]1NC(=O)[C@@H](CCCN)NC(=O)[C@H](C(C)C)NC(=O)c2cccc(c2)/N=N\c2ccc(cc2)CNC(=O)[C@H](CCCN)NC(=O)[C@H](C(C)C)NC(=O)[C@@H]2CCCN2C(=O)[C@@H](Cc2ccccc2)NC1=O

MIC (Staphylococcus aureus [2]): 256 µg/mL (≈ 251 µM)
Structure (SMILES): CC(C)C[C@@H]1NC(=O)[C@@H](CCCN)NC(=O)[C@H](C(C)C)NC(=O)c2cccc(c2)/N=N/c2ccc(cc2)CNC(=O)[C@H](CCCN)NC(=O)[C@H](C(C)C)NC(=O)[C@@H]2CCCN2C(=O)[C@@H](Cc2ccccc2)NC1=O
